Assay results from US12673014B2, “Inhibitors of glycosphingolipid synthesis and methods of use” (priority 2018, dated 2026).

Assays:
Format in all cases: in vivo, mouse
[1] = test system: ApoE−/− mice fed a western diet; experiment: Skin and hair phenotype (hair discoloration, hair loss, skin inflammation, wounds) in ApoE-/- mice fed western diet
Description: Male, 11-week-old apolipoprotein E-deficient (ApoE−/−) mice were purchased from Jackson Labs (Bar Harbor, Maine), and fed a western diet from the age of 12 to 20 weeks. Next, they were divided into the following diet/treatment groups.
Measurement of skin discoloration: An oval shape was drawn on the photographs taken from mice at the age of 36 weeks. This oval space covered the back area of mice from the neck to the tail ([…]). Using the free drawing pen and measure/analyze tool, the white area was measured for each mouse. The ratio of white area to the total area was then calculated, and the standard deviations for all the animals in each cage (N=5) was calculated and plotted.
Measurement of wounds and wound healing: For mouse skin wound analysis, the number of visible wounds in placebo-vs. BPD-treated mice (N=5 in each group), were counted manually. Then, averages of the wounds for each group were determined, as were the ratios of wounds in BPD-vs placebo-treated mice. Those ratios were then converted to percentages, expressed as “% wound healing.”

[2] = test system: skin glycosphingolipids (ceramide, monohexosylceramide, lactosylceramide); experiment: Skin glycosphingolipids by LC-ESI/MS/MS in ApoE-/- mice fed western diet
Description: Sample preparation: Glycosphingolipid molecular species were extracted according to a modified Bligh and Dyer procedure^55 Briefly, about 50-mg of each tissue sample was homogenized with 10 volumes of HPLC water at room temperature, followed by addition of 30 volumes methanol solution containing ammonium formate and d18:1/C12:0 ceramide as an internal standard (Avanti Polar Lipids, Alabaster, Alabama). The mixture was vortexed (Vortex-Genie, Model G560, Scientific Industries, Bohemia, NY), and 40 volumes of chloroform added. The mixture was vortexed again and centrifuged (Eppendorf centrifuge #5424) at 1,000 g for 10 minutes. The chloroform (bottom layer) was separated and dried using a Savant™ SPD131 SpeedVac (Thermo Scientific, Pittsburgh, PA, USA). Dried extracts were resuspended in pure methanol and sealed and stored at −80° C. until analysis by LC-ESI/MS/MS, as described previously^30-40.

B1-4GalT-V = experiment: GalT-V mass in skin tissue by ELISA, ApoE-/- mice fed western diet
Method: Measurement of B1-4GalT-V mass in skin tissue: Here, about 10-mg skin tissue was homogenized in RIPA buffer and centrifuged at 10,000 rpm. The mass of GalT-V was measured in the supernatant fraction using an ELISA assay. About 100-μg of each protein sample (in triplicate) was loaded in 96-well, medium-binding, clear flat bottom polystyrene ELISA plates (Immulux, Chantilly VA)-total volume adjusted to 100 μL with bicarbonate buffer (50 mM Na2CO3—NaHCO3). […] This antibody specifically recognizes human, mouse and rat tissue B4GalT-V. Moreover, this interaction can be inhibited by large volumes of the GalT-V peptide but not other proteins or scrambled peptide. After overnight incubation at 4 C, 200 μL of blocking buffer (1% bovine serum albumin/phosphate buffered saline) was added and incubation continued overnight. […] C., followed by incubation for 1-hr at 37 deg. C. with a horseradish peroxidase-conjugated IgG (Sigma) secondary antibody. Finally, 100-μL of TMB solution was added, and after 10 min incubation at 37° C., absorbance was measured at 450 nm.

[3] = test system: glucosylceramide synthase (UCGC); experiment: q-RT-PCR mRNA mass in skin tissue; settings: placebo vs D-PDMP fed ApoE-/- mice (data not shown)
LacCer synthase (GalT-V) = experiment: q-RT-PCR mRNA mass in skin tissue; settings: placebo vs D-PDMP fed ApoE-/- mice (data not shown)
Method: Analysis of gene expression by quantitative Real-Time PCR: A ~50-mg piece of skin tissue was homogenized from each mice and total RNA was isolated using TRIsol reagent according to the manufacturer's instructions (Invitrogen, Camarillo, CA). Two microgram of RNA were reverse transcribed with SuperScript II using random primers. The primer sequence for GalT-V were as follows:
The primers were synthesized by Integrated DNA Technologies (Coralville, USA). Real time PCR were performed using SYBR Green PCR Master Mix PCR Master Mix (applied Biosystems, Foster City, CA, USA) in an Applied Biosystems Step one Real time PCR system as described previously^52. Data were normalized to GAPDH mRNA levels. Expression suite software (Applied Biosystems) was used to analyze the data.

[4] = western diet, BPD 1-10 mpk, D-PDMP 10 mpk, 20-36 weeks

CCCCCCCCCC(=O)N[C@H](CN1CCOCC1)[C@H](O)c1ccccc1 [D-PDMP, D-threo-1-phenyl-2-decanoylamino-3-morpholino-1-propanol]
% wound healing ([1]; 10 mpk D-PDMP daily oral gavage, age 20-36 weeks, western diet): 83%
hair discoloration, hair loss, and skin inflammation ([1]; 10 mpk unbound D-PDMP with western diet, 20 to 36 weeks): also interfered with these pathologies
lactosylceramide d18:1/22:0 and d18:1/24:1 in skin ([2]; 1 mpk BPD or 10 mpk D-PDMP): restored to normal
levels of fatty acid molecular species of skin ceramide ([2]; 1 mpk BPD or 10 mpk D-PDMP, western diet lowered them ~3-fold): increased them to normal levels
d18:1/24:1 monohexosylceramide in skin ([2]; 1 mpk BPD vs 10 mpk D-PDMP, western diet lowered it ~3-fold): but not 10 mpk D-PDMP, completely restored
d18:1/26:1 ceramide in skin ([2]; 10 mpk D-PDMP): did not reverse the loss
lactosylceramide d18:1/16:0 in skin ([2]; 36 weeks, western diet raised it 3-fold): modestly decreased
18:1/24:0 monohexosylceramide in skin ([2]; printed: 1 mpk D-PDMP as efficacious as 10 mpk BPD, western diet lowered it ~1.5-fold): reversed
glucosylceramide level in skin [2, 4]: also increased
total ceramide level in skin [2, 4]: also increased
total lactosylceramide level in skin ([2]; western diet, BPD or D-PDMP): decreased
mass of GalT-V in skin tissue (B1-4GalT-V): showed a decrease
mRNA mass of glucosylceramide synthase in skin [3]: No statistical difference
mRNA mass of LacCer synthase (GalT-V) in skin (LacCer synthase (GalT-V)): No statistical difference
